Tests used:
SARS CoV-2 [1] = test: SARS CoV-2 CPE assay for antiviral activity in Vero E6 host cells; format: cell-based; settings: read-out: IC50 for inhibition of SARS CoV-2 mediated cell killing
[2] = Compound cytotoxicity (CC50) counter screen, Cell Titer-Glo; format: cell-based; settings: African green monkey, Example 5, Vero E6 cells, read-out: CC50 (general cytotoxic effects)
Protocol: Compound cytotoxicity (CC50) is assessed in a BSL-2 counter screen as follows: Host cells in media are added in 25 μl aliquots (4000 cells/well) to each well of assay ready plates prepared with test compounds as above. Cells only (100% viability) and cells treated with hyamine at 100 μM final concentration (0% viability) serve as the high and low signal controls, respectively, for cytotoxic effect in the assay. DMSO is maintained at a constant concentration for all wells (0.3%) as dictated by the dilution factor of stock test compound concentrations. After incubating plates at 37° C./5% CO2 and 90% humidity for 72 hours, 30 μl Cell Titer-Glo (Promega) is added to each well. Luminescence is read using a BMG PHERAstar plate reader following incubation at room temperature for 10 minutes to measure cell viability.

SARS CoV-2 [3] = test: microbe, parasite or virus in culture; format: cell-based; settings: Severe acute respiratory syndrome coronavirus 2, A549, 48 h; read-out: IC50 for inhibition of SARS CoV-2 mediated cell killing
in vitro = settings: human
[4] = Vero C1008, CPE assay, Vero E6 cells, USA_WA1/2020 SARS CoV-2, 72 hours, 10-point dose response (high concentration 15 μM)

`COC(=O)Nc1cc(-c2cc(-c3ccccc3C(F)(F)F)[nH]c(=O)c2)ccn1` [Compound 1] gave an IC50 (SARS CoV-2 [1]; [4]) of 120 nM, a CC50 at 72 h [2] greater than 30000 nM and an IC50 (SARS CoV-2 [3]) of 90 nM. It also gave a CC50 (in vitro) of 17000 nM.

For `CC(=O)Nc1cc(-c2cc(-c3cccnc3C(F)(F)F)[nH]c(=O)c2)ccn1` [Compound 2], the IC50 (SARS CoV-2 [1]; [4]) was 2340 nM, the CC50 at 72 h [2] was greater than 30000 nM and the IC50 (SARS CoV-2 [3]) was 470 nM. It also gave a CC50 (in vitro) greater than 30000 nM.

Molecule `COC(=O)Nc1cc(-c2cc(-c3cccnc3C(F)(F)F)[nH]c(=O)c2)ccn1` [Compound 3] has an IC50 (SARS CoV-2 [1]; [4]) of 340 nM, a CC50 at 72 h [2] greater than 30000 nM and an IC50 (SARS CoV-2 [3]) of 190 nM. For the same molecule, the CC50 (in vitro) was greater than 30000 nM.

`COC(=O)Nc1cc(-c2cc(N3CCOCC3C(F)(F)F)[nH]c(=O)c2)ccn1` (stereo not shown) [Compound 4] gave an IC50 (SARS CoV-2 [1]; Vero C1008, 72 h) of 209 nM, a CC50 at 72 h [2] of 8260 nM and an IC50 (SARS CoV-2 [3]) of 67 nM. It also gave a CC50 (in vitro) of 2400 nM.

From US11801238B2, “Anti-viral activity of VPS34 inhibitors” (priority 2020, dated 2023)
